The source of these data is patent publication US10538515B2, “Isatin-derived compounds, use of the compounds for the treatment of AIDS and method of treatment using these compounds” (FUNDAÇÄO OSWALDO CRUZ, priority 2016, dated 2020).

Where two headings read alike, the source gives them in different places.

One series can be described thus: Cytotoxicity assay (MTT). The series is classed as cell-based. The conditions noted are these: human. The procedure: (§1) The T-lymphocyte cell line (Suptl) was cultured in an RPMI 1640 medium (GIBICO). The cultures were supplemented with 10% Fetal Bovine Serum (SFB; HyClone, Logan, Utah, USA), 100 U/mL of penicillin and […] of streptomycin, and incubated at 37° C., in an atmosphere of 5% CO2. Virus stocks were prepared using the methodology described by Souza and Denizot (SOUZA, T. M. L; RODRIGUES, D. Q.; […], V. F.; MARQUES, I. P.; DE SOUZA, M. C. B. V.; […], I. C. P. P.; BOU-HABIB, D. C; FONTES, C. F. L. Characterization of HIV-1 enzyme reverse transcriptase inhibition by the compound 6-chloro-1.4-dihydro-4-oxo-1-(β-D-ribofuranosyl) quinoline-3-carboxylic acid through kinetic and in silico studies. Current HIV Research, v. 7, No 3, page 327-335, 2009. DENIZOT, F.; LANG, R. Rapid colorimetric assay for cell growth and survival. Modifications to the tetrazolium dye procedure giving improved sensitivity and reliability. The Journal of Immunological Methods, v. 89, No 2, page 271-277, 1986).
(§2) . They were then run through an MTT assay (3-(4,5-dimethylazol-2-yl)-2.5-diphenyl tetrazolium bromide) in order to analyze cell induction infeasibility. MTT is a colorimetric method that measures mitochondrial dehydrogenase activity based on the ability of live cells to reduce 3-(4,5-methylazol-2-yl)-2.5-diphenyl tetrazolium bromide salt in the product. A […] solution of 3-(4,5-dimethylthiazol-2-yl)-2.5-diphenyl tetrazolium bromide (1 mg/ml) (MTT, Sigma) was thus added to the cells, kept in Dulbecco's Modified Eagle's medium (DMEM) without serum. The MTT was removed after three hours and, after adding […] of isopropanol acid (0.04N HCl in isopropanol), the optical density (OD) was determined using a wavelength range of 570 to 690 nm, according to KUO et al (KUO, Y. C; CHEN, C. C; TSA, W. J.; HO, Y. H. Regulation of type 1 herpes simplex virus replication in vero cells by Psychotriaserpens: relationship to gene expression, DNA replication, and protein synthesis. Antiviral Research, v. 51, No 2, pages 95 to 109, 2001). The dye coloring has different optical densities, depending on mitochondrial metabolism after treating cells with different concentrations of the new derivatives or the absence thereof. The 50% cytotoxic concentration (CC50) was calculated through linear regression analysis from the dose-response curve obtained from experimental data.

Series [1] addresses T1, recombinant HIV-1 reverse transcriptase (RTHXB2) (Human immunodeficiency virus type 1 group M subtype B, UniProt P04585).
T1 construct: The enzyme is derived from a polyprotein encoded by the virus, processed by the viral protease
Nature of the series: Reverse transcriptase inhibition activity (RDDP, [3H]dTTP incorporation). The settings on record: for IS: CC50 / CI50. The series is classed as biochemical. How it is done: Reverse Transcriptase Inhibition Activity
The RDDP activity was determined in 50 mM Tris HCl (pH 7.8), 6 mM MgCl2, 1 mM dithiothreitol, 50 mM KCl, 5 μM dTTP, […] poly (rA) oligo (dT) template primer (Pharmacia, Piscataway, N.J., USA) and 3 U of enzyme (one unit is the enzyme concentration incorporating dTTP […] per minute per mg of enzyme at 37° C. under standard conditions). The reaction isotope dilutions were prepared at 2 μCi of [3H] dTTP (49 Ci/mmol)/2,7μ dTTP. The reaction was initiated at 37° C., incubated for 30 minutes and halted with 0.5M EDTA. The precipitate was collected on Whatman 81 filter paper and washed with 0.1 M sodium phosphate. The incorporated nucleotides were measured by liquid scintillation. The 50% inhibitory concentration (Ciso) was determined by linear regression analysis of the dose-response curve obtained from experimental data. The polymerization reaction was conducted in the presence and absence of test substances, as well as the presence and absence of standards.
All tests were conducted on three separate occasions. At least three independent experiments were performed and triplicates were run for each concentration.

Series [2] has as its system Suptl cells (T-lymphocyte cell line). Nature of the series: Cytotoxicity assay (MTT). The series is classed as cell-based. The settings on record: 50% cytotoxic concentration, 72 hours, MTT; read-out: CC50. The procedure:
as §1, §2

Setting [3] is: Suptl cells (T-lymphocyte cell line), 50% cytotoxic concentration, 72 hours, MTT, read-out: CC50.
[4] abbreviates: 50% inhibitory concentration, mean of three independent experiments, read-out: CI50 (the source's name).
[5] abbreviates: 50% cytotoxic concentration, 72 hours, MTT, read-out: CC50.

On to `O=C1Nc2ccc(Cl)cc2[C@@](C#CC2CC2)(C(F)(F)F)O1` [Efavirenz, reference compound], for which the CC50 (commonly the concentration at which the toxic effect on the cells reaches its halfway point) at 72 h in the series “Cytotoxicity assay (MTT)” (setting [3]) was 88 µM.
Turning to `Cc1cn(C2CC(n3cc(CN4C(=O)C(F)(F)c5ccccc54)nn3)C(CO)O2)c(=O)[nH]c1=O` (stereo not shown) [IIIa, 1-(4-(4-((3,3-difluor-2-oxoindolin-1-yl)methyl)-1H-1,2,3-triazole-1-yl)-5-(hydroxymethyl)tetrahydrofuran-2-yl)-5-methylpyrimidine-2.4(1H,3H)-dione], in series [1], the “RT enzyme inhibition activity compared with benchmarks (in words)” value was “more active than the nevirapine and tenofovir benchmarks”; the IS was determined as 1392. Further, the IC50 in series [1] (setting [4]) stood at 600 nM. In addition, the CC50 in series [2] worked out at 0.835 mM.
As to `Cc1ccc2c(c1)C(F)(F)C(=O)N2Cc1cn(C2CC(n3cc(C)c(=O)[nH]c3=O)OC2CO)nn1` (stereo not shown) [IIIb, 1-(4-(4-((3,3-difluor-5-methyl-2-oxoindolin-1-yl)methyl)-1H-1,2,3-triazole-1-yl)-5-(hydroxymethyl)tetrahydrofuran-2-yl)-5-methylpyrimidine-2.4(1H,3H)-dione], the IC50 in series [1] (setting [4]) is 3200 nM. For the same compound, in series [2], the CC50 was > 0.1 mM.
Take `Cc1cn(C2CC(n3cc(CN4C(=O)C(F)(F)c5cc(Cl)ccc54)nn3)C(CO)O2)c(=O)[nH]c1=O` (stereo not shown) [IIIc, 1-(4-(4-((5-chloro-3.3-difluor-2-oxoindolin-1-yl)methyl)-1H-1,2,3-triazole-1-yl)-5-(hydroxymethyl)tetrahydrofuran-2-yl)-5-methylpyrimidine-2.4(1H,3H)-dione]: in series [1], the “RT enzyme inhibition activity compared with benchmarks (in words)” value is “more active than the nevirapine and tenofovir benchmarks”; the IS stood at 1318. Moreover, the IC50 in series [1] (setting [4]) came out at 800 nM. Also, in series [2], the CC50 worked out at 1.05 mM.
`CCOP(=O)(Cn1cc(CN2C(=O)C(F)(F)c3ccccc32)nn1)OCC` [IIId, diethyl ((4-((3,3-difluor-2-oxoindolin-1-yl)methyl)-1H-1,2,3-triazole-1-yl)methyl) phosphonate]: the IC50 in series [1] (setting [4]) turned out to be 1200 nM. In addition, in series [1], the IS was found to be 1247. Moreover, the CC50 in series [2] was found to be 1.5 mM.
`Cc1cn(C2CC(n3cc(CN4C(=O)C(O)(C#CC5CC5)c5ccccc54)nn3)C(CO)O2)c(=O)[nH]c1=O` (stereo not shown) [IIa]: the IC50 in series [1] is 2100 nM. Moreover, the CC50 at 72 h in the series “Cytotoxicity assay (MTT)” (setting [3]) was > 100 µM.
For the compound `Cc1ccc2c(c1)C(O)(C#CC1CC1)C(=O)N2Cc1cn(C2CC(n3cc(C)c(=O)[nH]c3=O)OC2CO)nn1` (stereo not shown) [IIb, 1-(4-(4-((3-(cyclopropylethanol)-3-hydroxy-5-methyl-2-oxoindolin-1-yl)methyl)-1H-1,2,3-triazole-1-yl)-5-(hydroxymethyl)tetrahydrofuran-2-yl)-5-methylpyrimidine-2.4(1H,3H)-dione], in series [1], the IC50 turned out to be 3300 nM. Also, in “Cytotoxicity assay (MTT)” (setting [3]), the 50% cytotoxic concentration (CC50) at 72 h is > 100 µM.
For `Cc1cn(C2CC(n3cc(CN4C(=O)C(O)(C#CC5CC5)c5cc(Cl)ccc54)nn3)C(CO)O2)c(=O)[nH]c1=O` (stereo not shown) [IIc], the IC50 in series [1] came out at 3100 nM. In addition, in the series “Cytotoxicity assay (MTT)” (setting [3]), the CC50 at 72 h was > 100 µM.
Take `CCOP(=O)(Cn1cc(CN2C(=O)C(O)(C#CC3CC3)c3ccccc32)nn1)OCC` (stereo not shown) [IId]: the IC50 in series [1] is 3500 nM. Besides, in “Cytotoxicity assay (MTT)” (setting [5]), the 50% cytotoxic concentration (CC50) at 72 h was > 100 µM.
The like results for `CCOP(=O)(Cn1cc(CN2C(=O)C(O)(C#CC3CC3)c3cc(C)ccc32)nn1)OCC` (stereo not shown) [IIe, diethyl ((4-((3-(cyclopropylethanol)-3-hydroxy-5-methyl-2-oxoindolin-1-yl)methyl-1,2,3-triazole-1-yl)methyl) phosphonate] were, in that order, 1800 nM and > 100 µM.
For the compound `Cc1cn(C2CC(n3cc(CN4C(=O)C(=O)c5ccccc54)nn3)C(CO)O2)c(=O)[nH]c1=O` (stereo not shown) [Ia, 1-((1-(2-(hydroxymethyl)-5-(5-methyl-2.4-dioxo-3.4-dihydropyrimidine-1(2H)-yl)tetrahydrofuran-3-yl)-1H-1,2,3-triazole-4-yl)methyl)indolin-2.3-dione], the IC50 in series [1] was found to be 2500 nM. Moreover, in the series “Cytotoxicity assay (MTT)” (setting [3]), the CC50 at 72 h is > 100 µM.
The like results for `Cc1ccc2c(c1)C(=O)C(=O)N2Cc1cn(C2CC(n3cc(C)c(=O)[nH]c3=O)OC2CO)nn1` (stereo not shown) [Ib] were, in that order, 1900 nM and > 100 µM.
As to `Cc1cn(C2CC(n3cc(CN4C(=O)C(=O)c5cc(Cl)ccc54)nn3)C(CO)O2)c(=O)[nH]c1=O` (stereo not shown) [Ic, 5-chloro-1-((1-(2-(hydroxymethyl)-5-(5-methyl-2.4-dioxo-3.4-dihydropyrimidine-1(2H)-yl)tetrahydrofuran-3-yl)-1H-1,2,3-triazole-4-yl)methyl)indolin-2.3-dione], in series [1], the IC50 was 1900 nM. The CC50 at 72 h in the series “Cytotoxicity assay (MTT)” (setting [3]) is > 100 µM.
`CC(C)CN(CC(O)C(Cc1ccccc1)NC(=O)OC1CCOC1)S(=O)(=O)c1ccc(-n2cc(CN3C(=O)C(=O)c4ccccc43)nn2)cc1` [Id, tetrahydrofuran-3-yl ((2S)3R)-4-(4-(4-((2.3-dioxoindolin-1-yl)methyl)-1H-1,2,3-triazole-1-yl)-N-isobutylphenylsulfonamide)-3-hydroxy-1-phenylbutan-2-yl) carbamate]: in series [1], the IC50 worked out at 1500 nM. The CC50 at 72 h in the series “Cytotoxicity assay (MTT)” (setting [3]) is > 100 µM.
For `Cc1ccc2c(c1)C(=O)C(=O)N2Cc1cn(-c2ccc(S(=O)(=O)N(CC(C)C)CC(O)C(Cc3ccccc3)NC(=O)OC3CCOC3)cc2)nn1` [Ie, tetrahydrofuran-3-yl ((2S,3R)-3-hydroxy-4-(N-isobutyl-4-(4-((5-methyl-2.3-dioxoindolin-1-yl)methyl)-1H-1,2,3-triazole-1-yl)phenylsulfonamide)-1=phenylbutan-2-yl)carbamate], in series [1], the IC50 is 900 nM; the “RT enzyme inhibition activity compared with benchmarks (in words)” value was “more active than the nevirapine and tenofovir benchmarks”. Further, the CC50 at 72 h in “Cytotoxicity assay (MTT)” (setting [3]) was > 100 µM.
Regarding `CCOP(=O)(Cn1cc(CN2C(=O)C(=O)c3ccccc32)nn1)OCC` [If, diethyl ((4-((2.3-dioxoindolin-1-yl)methyl)-1H-1,2,3-triazole-1-yl)methyl) phosphonate], in series [1], the IC50 was 1300 nM and the IS is 1,782. Besides, the CC50 at 72 h in the series “Cytotoxicity assay (MTT)” (setting [5]) is 2320 µM.
`CCOP(=O)(Cn1cc(CN2C(=O)C(=O)c3cc(C)ccc32)nn1)OCC` [Ig, diethyl ((4-((5-methyl-2.3-dioxoindolin-1-yl)methyl)-1H-1,2,3-triazole-1-yl)methyl) phosphonate]: in series [1], the IC50 turned out to be 700 nM; the “RT enzyme inhibition activity compared with benchmarks (in words)” value was “more active than the nevirapine and tenofovir benchmarks”; the IS is 2,940. Also, the CC50 at 72 h in the series “Cytotoxicity assay (MTT)” (setting [5]) was found to be 2060 µM.
For the compound `CCOP(=O)(Cn1cc(CN2C(=O)C(=O)c3cc(Cl)ccc32)nn1)OCC` [Ih, diethyl ((4-((5-chloro-2.3-dioxoindolin-1-yl)methyl)-1H-1,2,3-triazole-1-yl)methyl) phosphonate], the IC50 in series [1] came to 1200 nM. For the same compound, in “Cytotoxicity assay (MTT)” (setting [5]), the 50% cytotoxic concentration (CC50) at 72 h was > 100 µM.
Consider `Cc1ccnc2c1NC(=O)c1cccnc1N2C1CC1` [Nevirapine, reference compound], for which the IS in series [1] amounted to 746. In addition, the CC50 at 72 h in “Cytotoxicity assay (MTT)” (setting [3]) came out at 895 µM.
With `Cc1cn([C@H]2C[C@H](N=[N+]=[N-])[C@@H](CO)O2)c(=O)[nH]c1=O` [Zidovudine, reference compound], in series [1], the IC50 was 10 nM and the IS was 12,600. For the same compound, the CC50 at 72 h in “Cytotoxicity assay (MTT)” came out at 126 µM.
